The target of assay [1] is recombinant human CYP17 enzyme (Homo sapiens (Human), UniProt P05093). In words: Cytochrome P450, 17-20 lyase (CYP17-lyase) assay, tritiated acetic acid release from 17-α-hydroxy pregnenolone [21-3H]. It is filed as biochemical. As to conditions: human CYP17, substrate 0.25 μM; read-out: Lyase IC 50 nM Human/Rat (Human). The essentials:
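Membranes of cells expressing human CYP17 incubated 90 min at room temperature with [21-3H]17α-hydroxypregnenolone and 4.2 mM NADPH in 50 mM phosphate pH 7.5. Released tritiated acetic acid separated from steroids by charcoal and counted by scintillation; IC50 from sigmoidal fit of % inhibition.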

A further assay deals with rat CYP17 lyase (Rattus norvegicus (Rat), UniProt P11715). Nature of the assay: rat CYP 17 Lyase model, rat testes microsomes as the source. It is filed as biochemical. As to conditions: for IC50: rat testes microsomes, substrate 0.5 μM, read-out: Lyase IC 50 nM Human/Rat (Rat); for inhibition at 0.1 µM: 100 nM compound, read-out: rCYP17 Lyase % Inh @ 100 nM. As to the method: For routine screening, the assay was set up with 16 μg of enzyme in 50 μL reaction volume. 17α-hydroxy pregnenolone [21-3H] was added to a final concentration of 0.25 μM. NADPH is used at a final concentration of 4.2 mM. Total reaction volume was made up to 50 μL with 50 mM Phosphate buffer pH 7.5. The reaction mixture was incubated at room temperature for 90 minutes with gentle shaking. The reaction was stopped by the addition of 100 μL of buffer. 500 μL of 5% freshly prepared activated charcoal was added to the solution and mixed well by vortexing. The samples were centrifuged at 17568×g for 5 minutes. (14000 rpm). The supernatant was carefully transferred to fresh tube and 1.3 mL of scintillation fluid was added, mixed by vortexing.
rat CYP17 lyase, sequence (P11715 whole entry): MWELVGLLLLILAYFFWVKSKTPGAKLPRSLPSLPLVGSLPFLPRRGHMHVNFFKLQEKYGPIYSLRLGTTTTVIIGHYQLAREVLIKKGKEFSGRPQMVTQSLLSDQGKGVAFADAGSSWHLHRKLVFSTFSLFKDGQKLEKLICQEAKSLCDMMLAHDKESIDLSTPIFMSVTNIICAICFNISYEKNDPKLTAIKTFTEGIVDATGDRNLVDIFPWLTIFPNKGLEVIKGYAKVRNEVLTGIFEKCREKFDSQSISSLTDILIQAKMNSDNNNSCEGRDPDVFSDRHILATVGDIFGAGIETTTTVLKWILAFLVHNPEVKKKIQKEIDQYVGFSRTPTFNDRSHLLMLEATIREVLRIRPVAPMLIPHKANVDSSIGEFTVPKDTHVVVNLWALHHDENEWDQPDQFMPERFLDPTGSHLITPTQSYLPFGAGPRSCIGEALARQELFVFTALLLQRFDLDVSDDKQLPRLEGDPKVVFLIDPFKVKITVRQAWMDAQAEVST
The radioactivity was measured in a 1450 MicroBeta TriLux™ scintillation counter from Wallac-Perkin Elmer®, USA. The measurements were carried out in 2.0 mL Eppendorforf™ tubes. Each tube was counted for 1 minute. The amount of tritiated acetic acid released is proportional to the lyase activity. Percent lyase activity in presence of inhibitor was calculated using the formula given below.
[formula] • Sample: Enzyme reaction in presence of inhibitor. • Positive control: Enzyme reaction without inhibitor but containing DMSO at 1% final concentration. • Blank-Contains all reagents except enzyme. % Inhibition=100%−% Lyase activity
For IC50 determination, the % inhibition was plotted as a function of inhibitor concentration. The data was fitted to sigmoidal equation using Graphpad Prism® software IV to generate IC50 values.
For the rat CYP 17 Lyase Model:
The same procedure described above was used but using rat testes microsomes as the source and with a substrate concentration of 0.5 μM.

recombinant human CYP17 enzyme, sequence (P05093 whole entry): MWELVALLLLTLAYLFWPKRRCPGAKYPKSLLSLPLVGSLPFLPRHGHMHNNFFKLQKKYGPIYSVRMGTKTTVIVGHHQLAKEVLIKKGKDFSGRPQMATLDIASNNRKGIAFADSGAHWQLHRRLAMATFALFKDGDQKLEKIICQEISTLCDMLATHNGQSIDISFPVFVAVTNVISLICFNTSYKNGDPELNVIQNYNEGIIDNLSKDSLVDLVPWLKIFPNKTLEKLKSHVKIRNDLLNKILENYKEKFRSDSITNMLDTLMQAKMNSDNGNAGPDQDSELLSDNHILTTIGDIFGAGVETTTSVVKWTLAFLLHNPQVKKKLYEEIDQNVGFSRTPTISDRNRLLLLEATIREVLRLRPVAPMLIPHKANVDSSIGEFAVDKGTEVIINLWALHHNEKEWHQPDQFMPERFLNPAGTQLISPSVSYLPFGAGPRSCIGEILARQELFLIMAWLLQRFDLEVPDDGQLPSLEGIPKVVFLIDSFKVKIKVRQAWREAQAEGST

Consider `COc1ccncc1N1CCN(c2ccc3ncsc3c2)C1=O` [Example 124A, 1-Benzothiazol-6-yl-3-(4-methoxy-pyridin-3-yl)-imidazolidin-2-one], for which the IC50 came out at 23 nM in assay [1] and 12 nM at rat CYP17 lyase. With `O=C1N(c2cccnc2)CCN1c1ccc2ccccc2c1` [Example 1A, 1-Naphthalen-2-yl-3-pyridin-3-yl-imidazolidin-2-one], the values for the IC50 (in assay [1]; on rat CYP17 lyase) were 34 nM and 35 nM, respectively. Moreover, the inhibition at 0.1 µM on rat CYP17 lyase was found to be 84%. Turning to `Cc1ccncc1N1CCN(c2ccc3sccc3c2)C1=O` [Example 27A, 1-Benzo[b]thiophen-5-yl-3-(4-methyl-pyridin-3-yl)-imidazolidin-2-one], the IC50 in assay [1] came out at 24 nM. The inhibition at 0.1 µM at rat CYP17 lyase was found to be 101%. As to `Cc1ccncc1N1CCN(c2ccc3c(C)n[nH]c3c2)C1=O` [Example 102A, 1-(3-Methyl-1H-indazol-6-yl)-3-(4-methyl-pyridin-3-yl)-imidazolidin-2-one], the values for the IC50 (in assay [1]; on rat CYP17 lyase) were 7.5 nM and 5 nM, respectively.

For `Cc1cccc(N2CCN(c3cnccc3C)C2=O)c1` [Example 55A, 1-(4-Methyl-pyridin-3-yl)-3-m-tolyl-imidazolidin-2-one], the IC50 in assay [1] was found to be 9 nM; at rat CYP17 lyase, 7 nM. `Cc1ccncc1N1CCN(c2ccc(F)cc2)C1=O` [Example 18A, 1-(4-Fluoro-phenyl)-3-(4-methyl-pyridin-3-yl)-imidazolidin-2-one]: in assay [1], the IC50 amounted to 76 nM. On rat CYP17 lyase, the inhibition at 0.1 µM was determined as 88% and the IC50 was determined as 12 nM.

Take `COc1cc(N2CCN(c3cnccc3C)C2=O)ccn1` [Example 72A, 1-(2-Methoxy-pyridin-4-yl)-3-(4-methyl-pyridin-3-yl)-imidazolidin-2-one]: the IC50 in assay [1] is 9.4 nM; on rat CYP17 lyase, 10 nM. Consider `Cc1ccncc1N1CCN(c2cnc3ccccc3c2)C1=O` [Example 24A, 1-(4-Methyl-pyridin-3-yl)-3-quinolin-3-yl-imidazolidin-2-one], for which the IC50 in assay [1] was 72 nM. Moreover, on rat CYP17 lyase, the inhibition at 0.1 µM was 98%.

For `Cc1ccncc1N1CCN(c2ccc3ncsc3c2)C1=O` [Example 16A, 1-Benzothiazol-6-yl-3-(4-methyl-pyridin-3-yl)-imidazolidin-2-one], in assay [1], the IC50 was 6 nM. On rat CYP17 lyase, the inhibition at 0.1 µM came to 94% and the IC50 came to 5 nM. For the compound `Cc1ccncc1N1CCN(c2ccc3[nH]ncc3c2)C1=O` [Example 28A, 1-(1H-Indazol-5-yl)-3-(4-methyl-pyridin-3-yl)-imidazolidin-2-one], the IC50 in assay [1] is 4 nM. In addition, at rat CYP17 lyase, the inhibition at 0.1 µM turned out to be 61% and the IC50 worked out at 52 nM. With `O=C1N(c2cccnc2)CCN1c1ccc2ncccc2c1` [Example 8A, 1-Pyridin-3-yl-3-quinolin-6-yl-imidazolidin-2-one], the inhibition at 0.1 µM on rat CYP17 lyase stood at 48%. Regarding `Cc1ccncc1N1CCN(c2ccc3ccccc3c2)C1=O` [Example 14A, 1-(4-Methyl-pyridin-3-yl)-3-naphthalen-2-yl-imidazolidin-2-one], the IC50 in assay [1] was determined as 17 nM; on rat CYP17 lyase, 2 nM. For the same compound, the inhibition at 0.1 µM at rat CYP17 lyase was 102%. Turning to `O=C1N(c2cncc(C(F)(F)F)c2)CCN1c1ccc2ccccc2c1` [Example 79A, 1-Naphthalen-2-yl-3-(5-trifluoromethyl-pyridin-3-yl)-imidazolidin-2-one], at rat CYP17 lyase, the inhibition at 0.1 µM was determined as 3.6%.

With `COc1cncc(N2CCN(c3cnccc3C)C2=O)c1` [Example 32A, 1-(5-Methoxy-pyridin-3-yl)-3-(4-methyl-pyridin-3-yl)-imidazolidin-2-one], the inhibition at 0.1 µM at rat CYP17 lyase was 73%. As to `Cc1ccncc1N1CCN(c2cc3ccccc3s2)C1=O` [Example 26A, 1-Benzo[b]thiophen-2-yl-3-(4-methyl-pyridin-3-yl)-imidazolidin-2-one], the IC50 in assay [1] stood at 15 nM. The inhibition at 0.1 µM on rat CYP17 lyase was 100%. Take `Cc1ccncc1N1CCN(c2ccc(Cl)s2)C1=O` [Example 41A, 1-(5-Chloro-thiophen-2-yl)-3-(4-methyl-pyridin-3-yl)-imidazolidin-2-one]: the IC50 in assay [1] came to 10 nM; on rat CYP17 lyase, 3 nM.

On to `Cc1ccncc1N1CCN(c2ccc3occ(C)c3c2)C1=O` [Example 29A, 1-(3-Methyl-benzofuran-5-yl)-3-(4-methyl-pyridin-3-yl)-imidazolidin-2-one], for which, in assay [1], the IC50 is 3 nM. Besides, on rat CYP17 lyase, the inhibition at 0.1 µM came to 98%.

As for `O=C1N(c2cccnc2)CCN1c1ccc2ncsc2c1` [Example 4A, 1-Benzothiazol-6-yl-3-pyridin-3-yl-imidazolidin-2-one], the IC50 in assay [1] was found to be 77 nM. Besides, the inhibition at 0.1 µM at rat CYP17 lyase came to 59%.

On to `Cc1ccncc1N1CCN(c2ccc3ncccc3c2)C1=O` [Example 52A, 1-(4-Methyl-pyridin-3-yl)-3-quinolin-6-yl-imidazolidin-2-one], for which the figures for the IC50 (in assay [1]; at rat CYP17 lyase) were 96 nM and 5 nM, respectively. Further, on rat CYP17 lyase, the inhibition at 0.1 µM was determined as 97%. In the case of `CCN1C(=O)CCc2cc(N3CCN(c4cccnc4)C3=O)ccc21` [Example 5A, 1-Ethyl-6-(2-oxo-3-pyridin-3-yl-imidazolidin-1-yl)-3,4-dihydro-1H-quinolin-2-one], the inhibition at 0.1 µM on rat CYP17 lyase was 51%. As for `Cc1ccncc1N1CCN(c2cccc(C(F)(F)F)c2)C1=O` [Example 70A, 1-(4-Methyl-pyridin-3-yl)-3-(3-trifluoromethyl-phenyl)-imidazolidin-2-One], the results for the IC50 (in assay [1]; at rat CYP17 lyase) were 6.5 nM and 2 nM, respectively. Consider `O=C1N(c2cccnc2)CCCN1c1ccc2ccccc2c1` [Example 10A, 1-Naphthalen-2-yl-3-pyridin-3-yl-tetrahydro-pyrimidin-2-one], for which the inhibition at 0.1 µM on rat CYP17 lyase was determined as 11%. On the same count and under the same terms, then `O=C1N(c2cccnc2)CCN1c1ccc2c(c1)CC/C2=N\O` [Example 12A], with 17%; and `O=C1N(c2cccnc2)CCN1c1ccc2scnc2c1` [Example 9A, 1-Benzothiazol-5-yl-3-pyridin-3-yl-imidazolidin-2-one], with 18%.

Consider `Cc1ccncc1N1CCN(c2ccsc2)C1=O` [Example 31A, 1-(4-Methyl-pyridin-3-yl)-3-thiophen-3-yl-imidazolidin-2-one], for which, in assay [1], the IC50 is 108 nM. Besides, the inhibition at 0.1 µM on rat CYP17 lyase came out at 74%.

These data come from patent publication USRE45173E1, “Inhibitors of CYP 17” (Novartis AG, priority 2009, dated 2014).
